Residues, ends and D or L forms follow the SMILES beside them.
Legend:
[1] = tested on: immortalized human microvascular endothelial cell line HMEC-1; test: LDH cell cytotoxicity assay; type: cell-based
Protocol: (§1) A Pierce LDH cytotoxicity assay kit (Thermo Scientific, Waltham, MA, USA) was applied for the LDH assay. An immortalized human microvascular endothelial cell line, HMEC-1, and a human keratinocyte cell line, HaCaT, were used in the LDH assay. A total of 8000 cells were placed in each well of the 96-well tissue culture plate with 100 µL of medium and incubated at 37 °C with 5% CO2 overnight. The cells were cultured with different drug concentrations ranging from 100 µM to 1µM for 24 h. […] of lysis buffer was prepared as the maximum LDH activity control. After incubating at 37 °C with 5% CO2 for 45 min, 50 µL of the sample was transferred into each well medium in a 96-well flat-bottom plate. Then, 50 µL of the reaction mixture was transferred to the wells and mixed. The 96-well plate was cultured for 30 min and protected from light at room temperature. Then, 50 µL of stop solution (supplied in the kit) was added to each well and mixed. The absorbance was detected at 490 nm and 680 nm.

[2] = tested on: human keratinocyte cell line HaCaT; test: LDH cell cytotoxicity assay; type: cell-based; conditions: for LDH leakage: 25 μM, 24 h
Protocol: as §1

[3] = tested on: K. pneumoniae (ATCC 43816) biofilm; type: cell-based, Klebsiella pneumoniae; conditions: for MBIC: biofilm inhibitory rate more than 90%; for MBEC: eradication rate greater than 99.9%
Protocol: (§2) To measure the antibiofilm activity of crabrolin and its derivatives, four drug-resistant biofilm-forming strains, MRSA (NCTC 12493), K. pneumoniae (ATCC 43816), E. faecium (NTCC-12697), and P. aeruginosa (ATCC 9027), were used in this assay. Tryptic soy broth (TSB) (for the Gram-positive bacteria) and Luria–Bertani broth (LB) (for the Gram-negative bacteria) were used to culture the bacteria.
(§3) The mass of the biofilm in this assay was detected by the crystal violet staining method. First, 100 μL of 5 × 10^5 CFU/mL bacteria was incubated with 1 μL of different peptide solutions (ranging from 51200 μM to 100 μM) for 24 h at 37 °C with 200 rpm shaking. After the biofilm formation, 100 μL of PBS was used to rinse the biofilm twice. Next, 100 µL of methanol was added to fix the biofilm, and the biofilm was then dried. Thereafter, 100 μL of 0.1% crystal violet was added and left to stain for 15 min, and then the excess crystal violet was further rinsed by PBS. After the plate had air-dried, 30% glacial acetic acid was added to each well of the plate, and the plate was shaken for 15 min before the optical density (OD) value was measured at 595 nm using a Synergy HT plate reader. The MBIC value refers to the minimum concentration at which the biofilm inhibitory rate was more than 90%.
(§4) Different from measuring the MBIC value, to determine the MBEC value, 100 μL of the bacteria was first added to 96-well plates. After the biofilm was formed, the biofilm was rinsed with PBS twice to remove the planktonic cells, and then different concentrations of the drugs were added to the biofilm (the same as the MBIC assay). The mixture was incubated at 37 °C with shaking at 200 rpm. After 24 h of incubation, the mass of the biofilm was measured in the same way as the MBIC value, and the minimum concentration at which the eradication rate was greater than 99.9% was considered to be the MBEC value.

[4] = tested on: K. pneumoniae (ATCC 43816); test: Antimicrobial susceptibility assay (MIC/MBC); type: cell-based, Klebsiella pneumoniae; conditions: for MIC: MHB, 37 °C, 20 h
Protocol: (§5) Six bacteria were tested in this experiment to detect the antimicrobial effects of crabrolin and its derivatives, including S. aureus (NCTC 10788), MRSA (NCTC 12493), E. coli (ATCC 8739), K. pneumoniae (ATCC 43816), E. faecium (NTCC-12697), and P. aeruginosa (ATCC 9027). The tested bacteria were cultured in Mueller Hinton broth medium (MHB) with norfloxacin (20 mg/L) as a positive control. All bacteria were incubated at 37 °C overnight and diluted to 5 × 10^5 CFU/mL before treating with the peptides. Stock solutions of 51,200 µM peptides were prepared in phosphate-buffered saline (PBS) and further diluted by a factor of two to 100 µM. Next, 1 µL of each peptide solution was mixed with 99 µL of bacterial subculture in a 96-well plate, and the plate was incubated at 37 °C for 20 h. After culturing, the absorbance of each well in the 96-well plate was analyzed at 550 nm using a Synergy HT plate reader (BioliseBioTek, Winooski, VT, USA). […] Starting with the MIC value, 10 µL of the solution from each well was dripped onto Mueller Hinton agar (MHA) plates. The plates were cultured at 37 °C for 20 h. After culturing, the lowest concentration with no colony growth was regarded as the MBC.

S. aureus (NCTC 10788) = test: Antimicrobial susceptibility assay (MIC/MBC); type: cell-based, Staphylococcus aureus; conditions: for MIC: MHB, 37 °C, 20 h
Protocol: as §5

[5] = tested on: P. aeruginosa (ATCC 9027) biofilm; type: cell-based, Pseudomonas aeruginosa; conditions: for MBIC: biofilm inhibitory rate more than 90%; for MBEC: eradication rate greater than 99.9%
Protocol: as §2, §3, §4

[6] = tested on: MRSA (NCTC 12493) biofilm; type: cell-based, methicillin-resistant Staphylococcus aureus; conditions: for MBIC: biofilm inhibitory rate more than 90%; for MBEC: eradication rate greater than 99.9%
Protocol: as §2, §3, §4

[7] = tested on: Galleria mellonella larvae; test: Toxicity to Galleria mellonella larvae without infection; type: in vivo; conditions: highest dose (50 mg/kg)
MRSA (NCTC 12493) = test: Antimicrobial susceptibility assay (MIC/MBC); type: cell-based, methicillin-resistant Staphylococcus aureus; conditions: for MIC: MHB, 37 °C, 20 h
Protocol: as §5

Hemolysis assay = type: cell-based, horse; conditions: horse, erythrocytes (2% suspension); for hemolysis at 2 h: at the peptide's maximum MIC, relative to Triton X-100, read-out: Hemolysis under the Maximum MIC
Protocol: (§6) According to the procedures described in detail in a previous study, the debris and impurities of the erythrocytes were washed with PBS in advance to yield 2% of the erythrocyte suspension, and the drug concentration was diluted from 1024 µM to 2 µM with PBS [53]. The same amounts of the drug and the erythrocyte suspension were mixed and cultured at 37 °C for 2 h; 0.1% Triton X-100 (Sigma-Aldrich, St. Louis, MO, USA) was prepared as a positive control, and PBS was prepared as a negative control. After the incubation, the supernatant was transferred to a 96-well plate and then detected using a Synergy HT plate reader at 570 nm.

horse erythrocytes = test: Hemolysis assay; type: cell-based; conditions: for HC10 (10% hemolytic concentration) / HC50 (50% hemolytic concentration): erythrocytes, 37 °C, 2 h
Protocol: as §6

[8] = tested on: E. faecium (NTCC12697) biofilm; type: cell-based, Enterococcus faecium; conditions: for MBIC: biofilm inhibitory rate more than 90%; for MBEC: eradication rate greater than 99.9%
Protocol: as §2, §3, §4

E. faecium (NTCC 12697) = test: Antimicrobial susceptibility assay (MIC/MBC); type: cell-based, Enterococcus faecium; conditions: for MIC: MHB, 37 °C, 20 h
Protocol: as §5

Q: Which results are given for `CC[C@H](C)[C@H](NC(=O)[C@H](CC(C)C)NC(=O)[C@@H]1CCCN1C(=O)[C@H](CC(C)C)NC(=O)[C@@H](N)Cc1ccccc1)C(=O)N[C@@H](CC(C)C)C(=O)N[C@@H](CCCNC(=N)N)C(=O)N[C@@H](CCCCN)C(=O)N[C@H](C(=O)N[C@H](C(=O)N[C@H](C(=O)N[C@@H](C)C(=O)N[C@@H](CC(C)C)C(N)=O)[C@@H](C)O)C(C)C)[C@@H](C)CC` [Crabrolin, FLPLILRKIVTAL-NH2] (H-FLPLILRKIVTAL-NH2)?
A: Cytotoxicity (LDH release) ([1]; HMEC-1, 100 μM): showed cytotoxicity; LDH leakage [2]: ~20%; Cytotoxicity (LDH release) ([2]; 100 μM): showed cytotoxicity; MBIC [3]: >512/>512 µM; MBEC [3]: >512/>512 µM; MBC [4]: 128 µM; MIC [4]: 64 µM; MBC (S. aureus (NCTC 10788)): 4 µM; MIC (S. aureus (NCTC 10788)): 2 µM; MBIC [5]: 128 µM; MBEC [5]: 512 µM; MBIC [6]: 4 µM; MBEC [6]: 128 µM; Death of healthy larvae [7]: did not result in the death of healthy larvae; MBC (MRSA (NCTC 12493)): 8 µM; MIC (MRSA (NCTC 12493)): 4 µM; MIC (MRSA (NCTC 12493); listed as crabrolin): 8 µM; hemolysis at 2 h (Hemolysis assay): 53.5%; Hemolytic activity (horse erythrocytes; 256 µM): 100%; HC10 (10% hemolytic concentration) (horse erythrocytes): 34.575 µM; HC50 (50% hemolytic concentration) (horse erythrocytes): 120.654 µM; MBIC [8]: 32 µM; MBEC [8]: > 512 µM; MBC (E. faecium (NTCC 12697)): 64 µM; MIC (E. faecium (NTCC 12697)): 16 µM

Q: Which results are given for `CC[C@H](C)[C@H](NC(=O)[C@H](CCCNC(=N)N)NC(=O)[C@@H]1CCCN1C(=O)[C@H](CC(C)C)NC(=O)[C@@H](N)Cc1ccccc1)C(=O)N[C@@H](CC(C)C)C(=O)N[C@@H](CCCNC(=N)N)C(=O)N[C@@H](CCCCN)C(=O)N[C@H](C(=O)N[C@H](C(=O)N[C@@H](CCCNC(=N)N)C(=O)N[C@@H](C)C(=O)N[C@@H](CC(C)C)C(N)=O)C(C)C)[C@@H](C)CC` [Crabrolin-TR, FLPRILRKIVRAL-NH2] (H-FLPRILRKIVRAL-NH2)?
A: Cytotoxicity (LDH release) ([1]; HMEC-1, 25 μM): cytotoxic; LDH leakage [2]: ~20%; MBIC [3]: 8 µM; MBEC [3]: 128 µM; MBC [4]: 8 µM; MIC [4]: 8 µM; MBC (S. aureus (NCTC 10788)): 2 µM; MIC (S. aureus (NCTC 10788)): 1 µM; MBIC [5]: 8 µM; MBEC [5]: 256 µM; MBIC [6]: 2 µM; MBEC [6]: 64 µM; Death of healthy larvae [7]: did not result in the death of healthy larvae; MBC (MRSA (NCTC 12493)): 2 µM; MIC (MRSA (NCTC 12493)): 2 µM; hemolysis at 2 h, 100 µM (Hemolysis assay; 100 μM): ~50%; hemolysis at 2 h (Hemolysis assay): 3.76%; Hemolysis (horse erythrocytes; 8 μM): neither crabrolin-TR nor crabrolin21 caused hemolysis; HC10 (10% hemolytic concentration) (horse erythrocytes): 36.041 µM; HC50 (50% hemolytic concentration) (horse erythrocytes): 211.927 µM; MBIC [8]: 16 µM; MBEC [8]: > 512 µM; MBC (E. faecium (NTCC 12697)): 8 µM; MIC (E. faecium (NTCC 12697)): 4 µM

Reference: article PMC10572522, “A Designed Analog of an Antimicrobial Peptide, Crabrolin, Exhibits Enhanced Anti-Proliferative and In Vivo Antimicrobial Activity” (International Journal of Molecular Sciences, 2023)
